Experimental data from BindingDB's records for patent US20250313563 (The Broad Institute, 2025).
Several values for one entry are separate records, joined by “and”; a condition that tells them apart may be missing. Equal entries are not always repeated.

What was measured:
[1] = target: Glycogen synthase kinase-3 alpha (Homo sapiens, UniProt P49840); test: TR-FRET Assay
How it was run: (§1)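 Kinase activity, measured after a 30-minute compound preincubation, was stopped with EDTA and quantified by TR-FRET using a Tb-labelled pSer641 antibody paired with streptavidin-d2.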

[2] = target: Glycogen synthase kinase-3 beta (Homo sapiens, UniProt P49841); test: TR-FRET Assay
How it was run: as §1

Glycogen synthase kinase-3 alpha, sequence (P49840 whole entry): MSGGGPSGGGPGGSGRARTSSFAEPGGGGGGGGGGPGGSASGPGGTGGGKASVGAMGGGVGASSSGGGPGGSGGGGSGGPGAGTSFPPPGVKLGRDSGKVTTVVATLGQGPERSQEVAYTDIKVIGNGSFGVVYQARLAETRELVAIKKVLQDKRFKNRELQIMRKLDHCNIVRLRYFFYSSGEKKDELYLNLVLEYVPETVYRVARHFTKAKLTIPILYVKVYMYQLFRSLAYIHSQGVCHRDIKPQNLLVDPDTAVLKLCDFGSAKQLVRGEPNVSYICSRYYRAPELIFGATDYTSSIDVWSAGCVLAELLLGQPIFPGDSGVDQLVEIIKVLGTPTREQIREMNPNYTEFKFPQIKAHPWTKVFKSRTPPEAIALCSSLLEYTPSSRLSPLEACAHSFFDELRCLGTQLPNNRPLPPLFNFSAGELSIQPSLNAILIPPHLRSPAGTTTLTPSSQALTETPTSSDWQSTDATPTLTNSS
Glycogen synthase kinase-3 beta, sequence (P49841 whole entry): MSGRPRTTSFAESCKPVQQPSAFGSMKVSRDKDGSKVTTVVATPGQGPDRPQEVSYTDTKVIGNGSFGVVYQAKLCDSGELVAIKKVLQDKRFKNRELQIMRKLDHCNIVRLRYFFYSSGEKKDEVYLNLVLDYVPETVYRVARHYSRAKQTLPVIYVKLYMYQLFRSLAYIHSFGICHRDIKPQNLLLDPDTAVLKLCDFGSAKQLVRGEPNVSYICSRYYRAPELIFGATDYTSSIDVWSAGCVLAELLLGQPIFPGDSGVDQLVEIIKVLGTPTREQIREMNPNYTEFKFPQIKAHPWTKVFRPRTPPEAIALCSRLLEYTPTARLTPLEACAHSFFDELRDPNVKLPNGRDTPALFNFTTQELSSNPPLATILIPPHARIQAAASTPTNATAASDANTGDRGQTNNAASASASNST

| IC50 [1] | IC50 [2] | SMILES |
| --- | --- | --- |
| 1000 to 5000 nM | > 5000 nM | CC[C@]1(c2cccc(-c3ccnc(N4CCCCC4)c3)c2)C2=CN=NC2NC2=C1C(=O)NC(C)(C)C2 (some centres not stated) [US20250313563, Compound 948646] |
| > 5000 nM | > 5000 nM | CC[C@]1(c2cccc(-c3cc(OC)nc4ccccc34)c2)C2=CN=NC2NC2=C1C(=O)NC(C)(C)C2 (some centres not stated) [US20250313563, Compound 948647] |
| > 5000 nM | > 5000 nM | CC[C@]1(c2cccc(C3=C4CC=CC(Cl)=C4N=CC3)c2)C2=CN=NC2NC2=C1C(=O)NC(C)(C)C2 (some centres not stated) [US20250313563, Compound 948650] |
| 100 to 1000 nM | > 5000 nM | CC[C@@]1(c2cccc(-c3c4c(nn3C)CCCC4)c2)C2=CN=NC2NC2=C1C(=O)NC(C)(C)C2 (some centres not stated) [US20250313563, Compound 948652] |
| < 100 nM | 100 to 1000 nM | CC[C@]1(c2cccc(-c3c4c(cn3C)CCCC4)c2)C2=CN=NC2NC2=C1C(=O)NC(C)(C)C2 (some centres not stated) [US20250313563, Compound 948655] |
| > 5000 nM | > 5000 nM | CC[C@]1(c2cccc(-c3ccnc4ccc(C)cc34)c2)C2=CN=NC2NC2=C1C(=O)NC(C)(C)C2 (some centres not stated) [US20250313563, Compound 948658] |
| < 100 nM | < 100 nM | CC[C@]1(c2cccc(-c3ccnc(C)c3)c2)C2=CN=NC2NC2=C1C(=O)NC1(CCCC1)C2 (some centres not stated) [US20250313563, Compound 948660] |
| < 100 nM | 100 to 1000 nM | CC[C@]1(c2cccc(C3=C4CC=C(OC)C=C4N=CC3)c2)C2=CN=NC2NC2=C1C(=O)NC(C)(C)C2 (some centres not stated) [US20250313563, Compound 948661] |
| 1000 to 5000 nM | > 5000 nM | CC[C@]1(c2cccc(-c3ccncc3C)c2)C2=CN=NC2NC2=C1C(=O)N[C@@]1(CCOC1)C2 (some centres not stated) [US20250313563, Compound 948662] |
| 1000 to 5000 nM | > 5000 nM | CC[C@]1(c2cccc(-c3ccnc4cc(F)c(F)cc34)c2)C2=CN=NC2NC2=C1C(=O)NC(C)(C)C2 (some centres not stated) [US20250313563, Compound 948664] |
| < 100 nM | < 100 nM | CCC1(c2cccc(-c3cc(C)ncc3F)c2)C2=C(CC(C)(C)NC2=O)NC2N=NC(C)=C21 (configuration not stated) [US20250313563, Compound 948761] |
| < 100 nM | < 100 nM | CCC1(c2cccc(-c3cc(C)ncc3F)c2)C2=C(CC(C)(C)NC2=O)NC2N=NC(C(F)(F)F)=C21 (configuration not stated) [US20250313563, Compound 948762] |
| < 100 nM | 100 to 1000 nM | CCC1(c2cccc(OC)c2)C2=C(CC(C)(C)NC2=O)NC2N=NC(C)=C21 (configuration not stated) [US20250313563, Compound 948763] |
| < 100 nM | 100 to 1000 nM | CCC1(c2cccc(Oc3ncccn3)c2)C2=CN=NC2NC2=C1C(=O)NC(C)(C)C2 (configuration not stated) [US20250313563, Compound 948764] |
| < 100 nM | < 100 nM | CCC1(c2cccc(-c3cc(C)nnc3C)c2)C2=C(CC(C)(C)NC2=O)NC2N=NC(C)=C21 (configuration not stated) [US20250313563, Compound 948765] |
| < 100 nM | < 100 nM | CCC1(c2cccc(-c3cnn(C)c3)c2)C2=C(CC(C)(C)NC2=O)NC2N=NC(Cl)=C21 (configuration not stated) [US20250313563, Compound 948767] |
| < 100 nM | < 100 nM | CCC1(c2cccc(-c3cn(C)nc3C)c2)C2=C(CC(C)(C)NC2=O)NC2N=NC(Cl)=C21 (configuration not stated) [US20250313563, Compound 948768] |
| 100 to 1000 nM | 100 to 1000 nM | CC[C@]1(c2cccc(-c3ccnc4c3CCC4)c2)C2=C(CC(C)(C)NC2=O)NC2N=NC(C(F)(F)F)=C21 (some centres not stated) [US20250313563, Compound 948769] |
| 100 to 1000 nM | 100 to 1000 nM | CC[C@]1(c2cccc(-c3ccncc3F)c2)C2=C(CC(C)(C)NC2=O)NC2N=NC(C(F)(F)F)=C21 (some centres not stated) [US20250313563, Compound 948770] |
| < 100 nM | < 100 nM and 100 to 1000 nM | CC[C@]1(c2cccc(S(=O)(=O)C3CC3)c2)C2=C(CC(C)(C)NC2=O)NC2=C1C(C(F)(F)F)N=N2 (some centres not stated) [US20250313563, Compound 948771] |
| 100 to 1000 nM | 100 to 1000 nM | CC[C@]1(c2cccc(-c3cnn4c3CCCC4)c2)C2=C(CC(C)(C)NC2=O)NC2N=NC(C(F)(F)F)=C21 (some centres not stated) [US20250313563, Compound 948772] |
| < 100 nM | < 100 nM | CC[C@@]1(c2cccc(-c3ccnc(C)c3)c2)C2=C(CC(C)(C)NC2=O)NC2N=NC(C(F)(F)F)=C21 (some centres not stated) [US20250313563, Compound 948774] |
| < 100 nM | < 100 nM and 100 to 1000 nM | CC[C@@]1(c2cccc(-c3cnn4c3CCCC4)c2)C2=C(CC(C)(C)NC2=O)NC2N=NC(C(F)(F)F)=C21 (some centres not stated) [US20250313563, Compound 948775] |
| 100 to 1000 nM | 100 to 1000 nM | CC[C@@]1(c2cccc(S(=O)(=O)C3CC3)c2)C2=C(CC(C)(C)NC2=O)NC2N=NC(C(F)(F)F)=C21 (some centres not stated) [US20250313563, Compound 948776] |
| < 100 nM | < 100 nM | CC[C@@]1(c2cccc(-c3ccncc3F)c2)C2=C(CC(C)(C)NC2=O)NC2N=NC(C(F)(F)F)=C21 (some centres not stated) [US20250313563, Compound 948777] |
| < 100 nM and 100 to 1000 nM | < 100 nM and 1000 to 5000 nM | CC[C@@]1(c2cccc(-c3ccnc4c3CCC4)c2)C2=C(CC(C)(C)NC2=O)NC2N=NC(C(F)(F)F)=C21 (some centres not stated) [US20250313563, Compound 948778] |

| IC50 [1] | IC50 [2] | SMILES |
| --- | --- | --- |
| 1000 to 5000 nM | > 5000 nM | CCC1(c2cccc(C3CN(C(C)=O)C3)c2)C2=CN=NC2NC2=C1C(=O)CC(C)(C)C2 (configuration not stated) [US20250313563, Compound 948779] |
| < 100 nM | 100 to 1000 nM | CCC1(c2cccc(-c3ccnc(C)c3OC)c2)C2=CN=NC2NC2=C1C(=O)NC(C)(C)C2 (configuration not stated) [US20250313563, Compound 948794] |
| < 100 nM and 100 to 1000 nM | < 100 nM and 1000 to 5000 nM | CC[C@@]1(c2cccc(-c3c(C)cncc3C)c2)C2=CN=NC2NC2=C1C(=O)NC(C)(C)C2 (some centres not stated) [US20250313563, Compound 948812] |
| 1000 to 5000 nM | > 5000 nM | CC[C@]1(c2cccc(C3=C4CC=CC(F)=C4N=CC3)c2)C2=CN=NC2NC2=C1C(=O)NC(C)(C)C2 (some centres not stated) [US20250313563, Compound 948813] |
| > 5000 nM | > 5000 nM | CC[C@]1(c2cccc(-c3cnn(C)c3C#N)c2)C2=CN=NC2NC2=C1C(=O)NC(C)(C)C2 (some centres not stated) [US20250313563, Compound 948814] |
| < 100 nM and 100 to 1000 nM | 100 to 1000 nM and > 5000 nM | CC[C@@]1(c2cccc(-c3cnn(C)c3C(F)(F)F)c2)C2=CN=NC2NC2=C1C(=O)NC(C)(C)C2 (some centres not stated) [US20250313563, Compound 948815] |
| > 5000 nM | > 5000 nM | CC[C@]1(c2cccc(-c3cnn(C(F)F)c3)c2)C2=CN=NC2NC2=C1C(=O)NC(C)(C)C2 (some centres not stated) [US20250313563, Compound 948816] |
| > 5000 nM | > 5000 nM | CC[C@]1(c2cccc(-c3ccnc4c3cnn4C)c2)C2=CN=NC2NC2=C1C(=O)NC(C)(C)C2 (some centres not stated) [US20250313563, Compound 948817] |
| 1000 to 5000 nM | > 5000 nM | CC[C@]1(c2cccc(-c3ccnc4cnccc34)c2)C2=CN=NC2NC2=C1C(=O)NC(C)(C)C2 (some centres not stated) [US20250313563, Compound 948819] |
| 1000 to 5000 nM | > 5000 nM | CC[C@]1(c2cccc(-c3c(Cl)cncc3Cl)c2)C2=CN=NC2NC2=C1C(=O)NC(C)(C)C2 (some centres not stated) [US20250313563, Compound 948824] |
| 100 to 1000 nM | 1000 to 5000 nM | CC[C@@]1(c2cccc(-c3ccnc(N4CCOCC4)c3)c2)C2=CN=NC2NC2=C1C(=O)NC(C)(C)C2 (some centres not stated) [US20250313563, Compound 948825] |
| < 100 nM and 100 to 1000 nM | 100 to 1000 nM and 1000 to 5000 nM | CC[C@@]1(c2cccc(-c3ccnc4c(F)cccc34)c2)C2=CN=NC2NC2=C1C(=O)NC(C)(C)C2 (some centres not stated) [US20250313563, Compound 948828] |
| > 5000 nM | > 5000 nM | CC[C@]1(c2cccc(-c3c(C)cncc3C)c2)C2=CN=NC2NC2=C1C(=O)NC(C)(C)C2 (some centres not stated) [US20250313563, Compound 948829] |
| < 100 nM and 100 to 1000 nM | < 100 nM and 1000 to 5000 nM | CCC1(c2cccc(-c3ccnc(C)c3)c2)C2=C(CC(C)(C)NC2=O)NC2N=NC(Cl)=C21 (configuration not stated) [US20250313563, Compound 948998] |
| < 100 nM | 100 to 1000 nM | CCC1(c2cccc(-c3ccncc3F)c2)C2=C(CC(C)(C)NC2=O)NC2N=NC(F)=C21 (configuration not stated) [US20250313563, Compound 948999] |
| 100 to 1000 nM | 100 to 1000 nM | CC[C@]1(c2cccc(N3CCOCC3)c2)C2=C(CC(C)(C)NC2=O)NC2N=NC(C(F)(F)F)=C21 (some centres not stated) [US20250313563, Compound 949000] |
| 100 to 1000 nM | 100 to 1000 nM | CC[C@]1(c2cccc(-c3ccnc(C)c3)c2)C2=C(CC(C)(C)NC2=O)NC2N=NC(F)=C21 (some centres not stated) [US20250313563, Compound 949001] |
| 1000 to 5000 nM | > 5000 nM | CC[C@]1(c2cccc(-c3cnn(C)c3)c2)C2=C(CC(C)(C)NC2=O)NC2N=NC(F)=C21 (some centres not stated) [US20250313563, Compound 949002] |
| 100 to 1000 nM | 100 to 1000 nM | CC[C@]1(c2cccc(-c3cncn3C)c2)C2=C(CC(C)(C)NC2=O)NC2N=NC(C(F)(F)F)=C21 (some centres not stated) [US20250313563, Compound 949003] |
| < 100 nM and 100 to 1000 nM | 100 to 1000 nM and > 5000 nM | CC[C@@]1(c2cccc(C(F)F)c2)C2=CN=NC2NC2=C1C(=O)NC(C)(C)C2 (some centres not stated) [US20250313563, Compound 949006] |
| 1000 to 5000 nM | > 5000 nM | CC[C@]1(c2cccc(C(F)F)c2)C2=CN=NC2NC2=C1C(=O)NC(C)(C)C2 (some centres not stated) [US20250313563, Compound 949007] |
| < 100 nM | 100 to 1000 nM | CC[C@@]1(c2cccc(-c3ccnc(C)c3)c2)C2=C(CC(C)(C)NC2=O)NC2N=NC(F)=C21 (some centres not stated) [US20250313563, Compound 949012] |
| < 100 nM | < 100 nM | CC[C@@]1(c2cccc(N3CCOCC3)c2)C2=C(CC(C)(C)NC2=O)NC2N=NC(C(F)(F)F)=C21 (some centres not stated) [US20250313563, Compound 949013] |
| 1000 to 5000 nM | > 5000 nM | CC[C@@]1(c2cccc(C(F)(F)F)c2)C2=CN=NC2NC2=C1C(=O)N(c1cccc(C)c1)CC2 (some centres not stated) [US20250313563, Compound 949041] |
| < 100 nM | < 100 nM | CCC1(c2cccc(C3CCCC3)c2)C2=CN=NC2NC2=C1C(=O)CC(C)(C)C2 (configuration not stated) [US20250313563, Compound 949082] |
